From PMC8781960, “Structural Basis of 2-Phenylamino-4-phenoxyquinoline Derivatives as Potent HIV-1 Non-Nucleoside Reverse Transcriptase Inhibitors” (Molecules, 2022)
Marks after values point to notes of the source that are not given here.

Assays:
HIV-1 RT = molecular target: T1, HIV-1 RT (Human immunodeficiency virus type 1 group M subtype B, UniProt P03366); experiment: HIV-1 RT inhibition assay (Roche RT kit, colorimetric ELISA); type: biochemical; conditions: for inhibition at 1 µM: read-out: Inhibitory activities (%) against HIV-1 RT
T1 construct: The reaction mixture consisted of template/primer complex, 2′-deoxy-nucleotide-5′-triphosphates (dNTPs), and RT enzyme in lysis buffer; purchased Roche Applied Science, Mannheim, Germany
From the text: The inhibition assay of HIV-1 RT was accomplished using the template/primer hybrid poly(A) × oligo(dT)15, digoxigenin (DIG)- and biotin-labeled nucleotides, an antibody to DIG that was conjugated to peroxidase (anti-DIG-POD), and the peroxidase substrate ABTS. The quantities of DIG- and biotin-labeled dUTP incorporated into DNA represent t HIV-1 RT activity. The HIV-RT inhibition assay was implemented using an RT assay kit (Roche Applied Science, Mannheim, Germany), and the procedures for assaying RT inhibition were performed as described in the kit protocol. […] The reaction mixture consisted of template/primer complex, 2′-deoxy-nucleotide-5′-triphosphates (dNTPs), and RT enzyme in lysis buffer with or without an inhibitor. […] The biotin-labeled dNTPs that were incorporated in the template bound to streptavidin because of the presence of RT. Unbound dNTPs were washed using a wash buffer, and anti-DIG-POD was added to the MTP. The DIG-labeled dNTPs incorporated in the template bound to the anti-DIG-POD antibody. Unbound anti-DIG-POD was also washed elaborately five times using a wash buffer. Finally, the peroxide substrate (ABST) was added to the MTP. A colored reaction product emerged during the cleavage of the substrate catalyzed by […]. The absorbance of the sample was measured at the optical density (OD) at 490 nm using the MTP (enzyme-linked immunosorbent assay [ELISA]) reader. The percentage inhibitory activities of the RT inhibitors were calculated by comparing with that of the sample without an inhibitor. The resulting color intensity was directly proportional to the RT activity. Percentage inhibitory values were calculated using the following formula: Inhibition (%) = [1–(OD value with RT and inhibitor−OD value without RT and inhibitors)/(OD value without inhibitors with RT−OD value without RT and inhibitors)] × 100.

[1] = test system: MRC-5 (normal embryonic lung cell); experiment: In vitro cytotoxicity (MTT), normal cell line; conditions: for %C percentage cytotoxicity MRC-5: normal cell line, at 50 µg/mL, inactive (IC50 ≥ 50 µg/mL); for IC50: Homo sapiens, MRC5, 48 h, read-out: IC50 MRC-5
Description: (§1) Background control wells contained the same volume as the complete culture medium. […] Samples at various concentrations were added to the microplate and incubated for another 48 h. Cell viability was determined by 3(4,5-dimethylthiazol-2-yl)-2-5-diphenyl tetrazolium bromide (MTT) assay (Sig-ma-Aldrich). The reagent was dissolved in phosphate-buffered saline at 5 mg/mL and filtered to sterilize and remove the small amount of insoluble residue present in some batches of MTT. […] Subsequently, dimethyl sulfoxide (100 µL; Merck, Germany) was added to dissolve the resulting formazan by sonication. The plates were read on a microplate reader (Molecular Devices, CA, USA) using a test wavelength of 550 nm and a reference wavelength of 650 nm. XTT assay for suspension cells was used for MOLT-3 cells.

[2] = test system: H69AR (lung cancer, multidrug resistant); experiment: In vitro cytotoxicity (MTT); type: cell-based, human; conditions: 48 h; for IC50: Homo sapiens, H69AR, mean ± standard error; for %C percentage cytotoxicity H69AR: human, 50 µg/mL
Description: Background control wells contained the same volume as the complete culture medium. […] The reagent was dissolved in phosphate-buffered saline at 5 mg/mL and filtered to sterilize and remove the small amount of insoluble residue present in some batches of MTT. […] Subsequently, dimethyl sulfoxide (100 µL; Merck, Germany) was added to dissolve the resulting formazan by sonication. The plates were read on a microplate reader (Molecular Devices, CA, USA) using a test wavelength of 550 nm and a reference wavelength of 650 nm.

[3] = test system: T47-D (hormone-dependent breast cancer); experiment: In vitro cytotoxicity (MTT); conditions: for IC50: Homo sapiens, T47D, 48 h, read-out: IC50 T47-D; for %C percentage cytotoxicity T47-D: at 50 µg/mL, inactive (IC50 ≥ 50 µg/mL)
Description: as §1

A549 (lung carcinoma) = experiment: In vitro cytotoxicity (MTT); conditions: for %C percentage cytotoxicity A549: at 50 µg/mL, inactive (IC50 ≥ 50 µg/mL); for IC50: Homo sapiens, A549, 48 h, read-out: IC50 A549
Description: as §1

HL-60 (promyeloblast) = experiment: In vitro cytotoxicity (MTT); conditions: for IC50: Homo sapiens, HL-60, 48 h, read-out: IC50 HL-60; for %C percentage cytotoxicity HL-60: at 50 µg/mL, inactive (IC50 ≥ 50 µg/mL)
Description: as §1

[4] = test system: MDA-MB-231 (hormone-independent breast cancer); experiment: In vitro cytotoxicity (MTT); conditions: for IC50: Homo sapiens, MDA-MB-231, 48 h, read-out: IC50 MDA-MB-231; for %C percentage cytotoxicity MDA-MB-231: at 50 µg/mL, inactive (IC50 ≥ 50 µg/mL)
Description: as §1

HepG2 (hepatocarcinoma) = experiment: In vitro cytotoxicity (MTT); conditions: for IC50: Homo sapiens, HepG2, 48 h, read-out: IC50 HepG2; for %C percentage cytotoxicity HepG2: at 50 µg/mL, inactive (IC50 ≥ 50 µg/mL)
Description: as §1

[5] = test system: HeLA (cervical carcinoma); experiment: In vitro cytotoxicity (MTT); conditions: for IC50: Homo sapiens, HeLa, 48 h, read-out: IC50 HeLA; for %C percentage cytotoxicity HeLA: at 50 µg/mL, inactive (IC50 ≥ 50 µg/mL)
Description: as §1

S102 (Thai liver cancer) = experiment: In vitro cytotoxicity (MTT); conditions: for IC50: Homo sapiens, 48 h, read-out: IC50 S102; for %C percentage cytotoxicity S102: at 50 µg/mL, inactive (IC50 ≥ 50 µg/mL)
Description: as §1

[6] = test system: HuCCA-1 (cholangiocarcinoma); experiment: In vitro cytotoxicity (MTT); conditions: for IC50: Homo sapiens, HuCC-A1, 48 h, read-out: IC50 HuCCA-1; for %C percentage cytotoxicity HuCCA-1: at 50 µg/mL, inactive (IC50 ≥ 50 µg/mL)
Description: as §1

[7] = test system: MOLT-3 (acute lymphoblastic leukemia); experiment: In vitro cytotoxicity (XTT); conditions: for IC50: Homo sapiens, MOLT-3, 48 h, read-out: IC50 MOLT-3; for %C percentage cytotoxicity MOLT-3: at 50 µg/mL, inactive (IC50 ≥ 50 µg/mL)
Description: as §1

| Compound | %C percentage cytotoxicity MRC-5 [1] | IC50 [2] | inhibition at 1 µM (HIV-1 RT) | IC50 [3] | %C percentage cytotoxicity A549 (A549 (lung carcinoma)) | IC50 (HL-60 (promyeloblast)) | IC50 [4] | IC50 (HepG2 (hepatocarcinoma)) | IC50 [5] | IC50 (S102 (Thai liver cancer)) | IC50 [6] | IC50 [7] | also measured |
| --- | --- | --- | --- | --- | --- | --- | --- | --- | --- | --- | --- | --- | --- |
| 4,4′-di-(2’,6’-Dimethyl-4’-formylphenoxy)-2,2′-biquinoline [Compound 7b] | – | – | – | – | – | – | – | – | – | – | – | – | Inhibitory activities (%) against HIV-1 RT (HIV-1 RT; 1 µM, mean ± standard error): 30.3 ± 2.3% |
| Cc1cc(/C=C/C#N)cc(C)c1Nc1ccnc(Nc2ccc(C#N)cc2)n1 [RPV, rilpivirine, reference compound] | %C = 14.4 ^c | 57.1 ± 2 µM | 97.1 ± 0.9% | 15 ± 1.3 µM | %C = 42.0 ^c | 11.5 ± 0.8 µM | 25.3 ± 2.9 µM | 87.4 ± 0.1 µM | 11.3 ± 1.2 µM | 22.5 ± 1.2 µM | 61.3 ± 1.7 µM | 4.3 ± 0.5 µM | cytotoxicity toward normal embryonic lung (MRC-5) cells, in words [1]: very low cytotoxicity; IC50 (HIV-1 RT): 0.06 µM |
| O=C1Nc2ccc(Cl)cc2[C@@](C#CC2CC2)(C(F)(F)F)O1 [EFV, efavirenz, reference compound] | – | 105 ± 3.4 µM | – | 59.2 ± 0.8 µM | – | 33.7 ± 1.1 µM | 77.7 ± 5.6 µM | 86.6 ± 3.9 µM | 46.2 ± 1.3 µM | 93.5 ± 4.7 µM | 59.6 ± 2.4 µM | 24.6 ± 1.2 µM | IC50 [1]: 95.6 ± 6 µM; IC50 (A549 (lung carcinoma)): 60.2 ± 1.8 µM |
| COc1cc([C@@H]2c3cc4c(cc3[C@@H](O[C@@H]3O[C@@H]5CO[C@@H](C)O[C@H]5[C@H](O)[C@H]3O)[C@H]3COC(=O)[C@H]23)OCO4)cc(OC)c1O [Etoposide, etoposide, reference compound] | – | – | – | – | – | 0.8 ± 0.1 µM | – | 49.9 ± 1.1 µM | – | – | – | 0.03 µM | – |
| Cc1cc(/C=C/C#N)cc(C)c1Oc1cc(Nc2ccc(C#N)cn2)nc2ccccc12 [Compound 10b-trans, 4-(4′-(2″-(E, Z)-cyanovinyl)-2′,6′-dimethyl-phenoxy)-2-(5″-cyanopyridin-2″ylamino)-aminoquinoline] | %C = 0.0 ^c | – | 32.4 ± 3.5% | – | %C = 1.0 ^c | – | – | – | – | – | – | – | %C percentage cytotoxicity H69AR [2]: %C = 0.0 ^c; %C percentage cytotoxicity T47-D [3]: %C = 0.0 ^c; %C percentage cytotoxicity HL-60 (HL-60 (promyeloblast)): %C = 31.0 ^c; %C percentage cytotoxicity MDA-MB-231 [4]: %C = 17.0 ^c; %C percentage cytotoxicity HepG2 (HepG2 (hepatocarcinoma)): %C = 1.0 ^c; %C percentage cytotoxicity HeLA [5]: %C = 10.0 ^c; %C percentage cytotoxicity S102 (S102 (Thai liver cancer)): %C = 3.1 ^c; %C percentage cytotoxicity HuCCA-1 [6]: %C = 0.0 ^c; %C percentage cytotoxicity MOLT-3 [7]: %C = 2.0 ^c |
| COc1cccc2c1C(=O)c1c(O)c3c(c(O)c1C2=O)C[C@@](O)(C(=O)CO)C[C@@H]3O[C@H]1C[C@H](N)[C@H](O)[C@H](C)O1 [Doxorubicin, reference compound] | – | 34.3 ± 0.1 µM | – | 1.2 µM | – | 0.1 µM | 2.5 ± 0.1 µM | 0.6 µM | 0.4 µM | 2.2 µM | 0.9 µM | 0.02 µM | IC50 [1]: 3.1 ± 0.5 µM; IC50 (A549 (lung carcinoma)): 0.6 µM |
| Cc1cc(/C=C\C#N)cc(C)c1Oc1cc(Nc2ccc(C#N)cn2)nc2ccccc12 [Compound 10b-cis, 4-(4′-(2″-(E, Z)-cyanovinyl)-2′,6′-dimethyl-phenoxy)-2-(5″-cyanopyridin-2″ylamino)-aminoquinoline] | %C = 0.0 ^c | – | 29.4 ± 3.6% | – | %C = 0.0 ^c | – | – | – | – | – | – | – | %C percentage cytotoxicity H69AR [2]: %C = 0.0 ^c; %C percentage cytotoxicity T47-D [3]: %C = 0.0 ^c; %C percentage cytotoxicity HL-60 (HL-60 (promyeloblast)): %C = 5.0 ^c; %C percentage cytotoxicity MDA-MB-231 [4]: %C = 0.0 ^c; %C percentage cytotoxicity HepG2 (HepG2 (hepatocarcinoma)): %C = 0.0 ^c; %C percentage cytotoxicity HeLA [5]: %C = 0.0 ^c; %C percentage cytotoxicity S102 (S102 (Thai liver cancer)): %C = 0.0 ^c; %C percentage cytotoxicity HuCCA-1 [6]: %C = 0.0 ^c; %C percentage cytotoxicity MOLT-3 [7]: %C = 11.0 ^c |
